Measurements reported in US20140256830A1, “RESORCINOL COMPOUNDS FOR DERMATOLOGICAL USE” (Ampere Life Sciences, Inc., priority 2013, published 2014).

System: human neonatal epidermal melanocytes (HEMn-DP) / HaCaT cells co-culture
Test: Melanocyte-HaCaT Co-Culture Assay
Assay type: cell-based
Settings: 10 μM concentration, 72 h, corrected for viability (Calcein-AM)
Experimental: Darkly pigmented human neonatal epidermal melanocytes (HEMn-DP, Invitrogen) were grown in Medium 254 with HMGS-2 supplement and P/S at 37° C. and 5% CO2. HaCaT cells were grown in DMEM, 10% FBS, P/S at 37° C., 5% CO2. Co-culture was conducted in 50% melanocyte media+50% keratinocyte media (EpiLife with EDGS, P/S). Cells were plated in the co-culture media at 40K (HaCaT) and 30K (HEMn-DP) per well in a 24-well plate. After 24 h of incubation at 37° C. and 5% CO2, media was changed to M153 (MCDB153 Sigma M7403 with NaHCO3 pH to 7.1, 2 mM Tyrosine, 10 nM NDP-aMSH, 3 ng/mL bFGF, 2.8 ug/mL Hydrocortisone, 10 ug/mL Insulin, 10 ug/mL Transferrin, and P/S), treated with compound, and incubated for 72 h at 37° C. and 5% CO2. After measuring cellular viability with Calcein-AM (RFU Ex/Em=488/525 nm), cells were lysed at 1 h at 65° C. with 1N NaOH+10% DMSO. Absorbance of cleared lysate was measured at 405 nm and 660 nm. % melanin was calculated as follows: ((Abs405DMSO−Abs660DMSO)/CalceinDMSO)−(Abs405comp−Abs660comp)/Calceincomp))/(Abs405DMSO−Abs660DMSO)/CalceinDMSO×100. At 10 μM concentration, % cellular melanin was 42% in the presence of compound 4,5CHMR.

Structure (SMILES)	% cellular melanin
Cc1cc(O)cc(O)c1C1CCCCC1 [4,5CHMR, 4-cyclohexyl-5-methylbenzene-1,3-diol]	42%

System: mushroom tyrosinase (Sigma T3824)
Test: Mushroom Tyrosinase Inhibition Assay
Assay type: biochemical
Settings: 10 μM compound, 300 μM L-Tyrosine, 84 units/mL enzyme, pH 6.5, 15 min room temperature
Experimental: 10 μM compound, 300 μM L-Tyrosine, and 84 units/mL of mushroom tyrosinase (Sigma T3824) were combined into 0.05 M potassium monophosphate buffer at pH=6.5, and incubated for 15 min at room temperature. Absorbance was recorded at 490 nm. % tyrosinase inhibition was calculated as follows: (AbsDMSO−Abscmpd)/AbsDMSO×100. The assay was performed for various compounds described herein, as well as for control compounds 4-ethyl resorcinol (4ER), 4-isopropylresorcinol (4IPR), 4-hexylresorcinol (4HR), 4-cyclohexylresorcinol (4CHR), 5-methylresorcinol (5MR), kojic acid (KA), and hydroquinone (HQ), structures of which are shown below.

Structure (SMILES)	Mushroom Tyrosinase (% remaining enzyme activity) % TYR Activity
Cc1cc(O)cc(O)c1Cc1ccccc1 [4,5BnMR, 4-benzyl-5-methylbenzene-1,3-diol]	97%
Oc1cc(O)c(Cc2ccccc2)c(C(F)(F)F)c1 [4,5BnTFMR, 2-Benzyl-1,5-dihydroxy-3-trifluoromethyl-benzene]	93%
Oc1cc(O)c(C2CCCCC2)c(F)c1 [4,5CHFR, 4-cyclohexyl-5-fluorobenzene-1,3-diol]	1%
Cc1cc(O)cc(O)c1C1CCCCC1 [4,5CHMR, 4-cyclohexyl-5-methylbenzene-1,3-diol]	22%
Oc1cc(O)c(C2CCCCC2)c(C(F)(F)F)c1 [4,5CHTFMR]	100%
Cc1cc(O)cc(O)c1C1CCCC1 [4,5CPMR, 4-cyclopentyl-5-methylbenzene-1,3-diol]	71%
Cc1cc(O)cc(O)c1C1CC1 [4,5CPrMR, 4-cyclopropyl-5-methylbenzene-1,3-diol]	30%
Oc1cc(O)c(C2CCCCC2)c(F)c1 [4,5EFR, 4-cyclohexyl-5-fluorobenzene-1,3-diol]	3%
CCc1c(C)cc(O)cc1O [4,5EMR, 4-ethyl-5-methylbenzene-1,3-diol]	93%
CCc1c(O)cc(O)cc1C(F)(F)F [4,5ETFMR, 2-Ethyl-1,5-dihydroxy-3-trifluoromethyl-benzene]	102%
CCCCCCc1c(C)cc(O)cc1O [4,5HMR, 4-hexyl-5-methylbenzene-1,3-diol]	10%
Cc1cc(O)cc(O)c1C(C)C [4,5IPMR, 4-isopropyl-5-methylbenzene-1,3-diol]	108%
Cc1cc(O)cc(O)c1CC1CCCC1 [4,5MCPMR, 4-cyclopentylmethyl-5-methylbenzene-1,3-diol]	32%
Cc1cc(O)cc(O)c1C(C)c1ccccc1 (stereo not drawn) [4,5PEMR, 4-(1-phenylethyl)-5-methylbenzene-1,3-diol]	105%
Cc1cc(O)cc(O)c1CC(F)(F)F [4,5TFEMR, 4-(2,2,2-trifluoroethyl)-5-methylbenzene-1,3-diol]	103%
CCC(C)c1c(C)cc(O)cc1O (stereo not drawn) [4,5sBMR, 4-sec-butyl-5-methylbenzene-1,3-diol]	100%
Oc1ccc(C2CCCCC2)c(O)c1 [Compound 4CHR, 4-cyclohexylresorcinol, reference compound]	0%
CCc1ccc(O)cc1O [Compound 4ER, 4-ethyl resorcinol, reference compound]	2%
CCCCCCc1ccc(O)cc1O [Compound 4HR, 4-hexylresorcinol, reference compound]	1%
CC(C)c1ccc(O)cc1O [Compound 4IPR, 4-isopropylresorcinol, reference compound]	1%
Cc1cc(O)cc(O)c1 [Compound 5MR, 5-methylresorcinol, reference compound]	100%
Oc1ccc(O)cc1 [Hydroquinone, hydroquinone, reference compound]	100%
O=c1cc(CO)occ1O [Kojic Acid, kojic acid, reference compound]	84%
